Assay results from US4144236A (priority 1973, dated 1979).
Like-named read-outs stand apart in the source and are kept apart here.

What was measured:
[1] = Text: ^++ D'Amour,D.E. and Smith,D.L.: J.Pharm.Expt.Ther. 72. 74 (1941)
[2] = test system: citric acid aerosol induced cough; test: animal or person; type: in vivo, Wistar rats; settings: for ED50: Rattus norvegicus, read-out: AtD50
Experimental: The anti-tussive activity in rats was tested by the method of Gosswald. Wistar rats weighing 130 to 180 g were placed in a plexi box (23 × 22 × 11 cm) and cough responses were elicited by citric acid aerosol (10%). The latency period of cough was measured before and after drug administration. The control latency was determined 18 hours before the drug administration. Animals with less than 60 second control latency were used for the experiments. […] Each animal was exposed to citric acid aerosol for a period of 3 minutes 30 seconds and 60 minutes after drug administration. […] Ten animals were used at each dose level. The anti-tussive dose (AtD50) was calculated according to Litchfield and Wilcoxon. The drugs were administered by subcutaneous and oral routes.

[3] = test system: electrical stimulation induced coughing; test: Anti-tussive activity: electrical stimulation (superior laryngeal nerve) induced coughing in cats (method of Domenjoz); type: in vivo; settings: for ED50 / ED100: Felis catus; for ED50: read-out: AtD50; for ED100: read-out: AtD100
Experimental: Anti-tussive activity in cats was determined by the method of Domenjoz. Cats weighing 2.5 to 3.5 kg were anesthetized with an i.p. dose of 30 mg per kg of sodium pentobarbitone. […] The cough responses were measured by means of a Marey-tambour connected to a face mask and recorded on a smoked paper. Drugs were given intravenously in increasing doses. The effect of each dose was measured on at least five cats. The effects of the drug was calculated from the changes of amplitude of cough curves. If no coughing was produced by two successive stimulations, the dose was taken as the effective anti-tussive dose (AtD100). The anti-tussive dose (AtD50) which reduces the control response by 50% was calculated by the method of Litchfield and Wilcoxon.

[4] = Blood pressure changes in anesthetized cats; settings: for Change in blood pressure: drop from control
Experimental: Blood pressure changes were studied in cats anesthetized with pentabarbitone sodium (35 mg/kg, i.p.). The substances were injected into the right femoral vein, responses to drugs were measured by means of a mercury manometer and recorded on a smoke cylinder.

[5] = Analgesic ED50, hot plate test, i.p. (footnote of Table 4); type: in vivo; settings: for ED50: ip, read-out: ED50 (analgesic)
Experimental: 0.025 mg./kg. i.p., Compound "A": 0.0125 mg./kg. i.p. (measured by the ho

Remark: listed apart in the source
in vivo = settings: rat, sc
[6] = Analgesic activity, writhing test (Van der Wende and Margolin), s.c., mice; settings: Mus musculus, sc, read-out: ED50 (Writhing test)
[7] = Physical dependency disposition test (spring-test; jumping after naloxone) for 2 days on mice; settings: Haloxone 100 mg./kg., 2nd day; for Average jump per mouse: mice
Experimental: ^+ The total dosage was added intraperitoneally in seven, gradually
increasing increments, within 26 hours.

[8] = rats, s.c., 95% confidence limits on the next line
[9] = sc, rats, s.c., limits in brackets
[10] = rats, s.c., 95% confidence limits given
[11] = total dosage 10 i.p. in 26 hours
[12] = total dosage 70 i.p. in 26 hours
[13] = cats, i.v., no coughing by two successive stimulations
[14] = total dosage 100 i.p. in 26 hours
[15] = total dosage 200 i.p. in 26 hours
[16] = total dosage 400 i.p. in 26 hours
[17] = total dosage 1000 i.p. in 26 hours
[18] = anesthetized cats, 0.5 mg/kg i.v.
[19] = anesthetized cats, 0.5 mg/kg i.v., means ± S.E.
[20] = iv, cats, i.v., no coughing by two successive stimulations
[21] = total dosage 1 i.p. in 26 hours
[22] = total dosage 40 i.p. in 26 hours

SMILES: CN1CC[C@]23c4c5ccc(O)c4O[C@H]2[C@H](N=[N+]=[N-])CC[C@@]3(O)[C@H]1C5 [Compound "A", 6-deoxy-6-azido-14-hydroxy-7,8-dihydroisomorphine]
- ED50 (tail flick test) [1, 8]: 0.029 s.c. mg./kg.
- ED50 ([2]; po): 10 mg/kg
- ED50 [2, 9]: 0.021 mg/kg
- anti-tussive activity in words ([2]; rat, in vivo): superior anti-tussive to those anti-tussives currently in use
- Ratio codeine/drug (AtD50) ([2]; rat, in vivo, po): 10.00
- potency as an anti-tussive relative to codeine ([2]; rat, in vivo, sc): 904 times
- Ratio codeine/drug (AtD50) ([2]; rats, s.c.): 904.76
- ED50 ([3]; iv): 0.012 mg/kg
- ED100 ([3]; iv): 0.02 ± 0.002 mg/kg
- Ratio codeine/drug (AtD50) ([3]; in vivo, iv): 120.83
- Ratio codeine/drug (AtD100) ([3]; in vivo, iv): 253.50
- tolerance to the vasodepressor responses ([4]; in vivo): cross tolerance between morphine, codeine, azidomorphine and 14-hydroxyazidomorphine* was observed
- blood pressure effect in words ([4]; in vivo, iv): greatest drop in blood pressure of all compounds tested
- Blood pressure after drug ([4]; in vivo, iv, 0.035 mg/kg): 97 ± 4.5 mm Hg
- ED50 ([5]; hot plate test): 0.0125 mg/kg
- therapeutical indices in words (rat, in vivo): more favorable therapeutical indices than any of the known substances with similar biological activities
- ED50 (hot plate) [10]: 0.012 mg./kg.s.c.
- LD50 (in vivo): 200 mg/kg
- ED50 [6]: 0.051 mg/kg
- Average jump per mouse [7, 11]: 0.9
- Average jump per mouse [7, 12]: 3.8
- Jumping mice/examined mice [7, 11]: 3/25
- Jumping mice/examined mice [7, 12]: 14.25

SMILES: CN1CC[C@]23c4c5ccc(O)c4O[C@H]2[C@@H](O)C=C[C@H]3[C@H]1C5 [Morphine]
- ED50 (tail flick test) ([1]; rat, in vivo, sc): 1.8 s.c. mg./kg.
- ED50 ([3]; iv): 0.61 mg/kg
- AtD100 [3, 13]: 1.28 ± 0.32 mg/kg i.v.
- Change in blood pressure ([4]; anesthetized cats, 1.03 mg/kg i.v.): 39 ± 2.1 mm Hg
- Blood pressure after drug ([4]; anesthetized cats, 1.03 mg/kg i.v., means ± S.E.): 92 ± 1.0 mm Hg
- blood pressure effect in words ([4]; anesthetized cats, i.v.): only morphine produced a biphasic hypotensive effect
- ED50 (analgesic) ([5]; i.p., hot plate test): 5 mg./kg. i.p.
- ED50 (hot plate) (rat, in vivo, sc): 4.7 mg./kg.s.c.
- ED50 [6]: 0.69 mg/kg
- Average jump per mouse [7, 14]: 9.7
- Average jump per mouse [7, 15]: 46.4
- Average jump per mouse [7, 16]: 42.7
- Average jump per mouse [7, 17]: 48.7
- Jumping mice/examined mice [7, 14]: 20/25
- Jumping mice/examined mice [7, 15]: 25/25
- Jumping mice/examined mice [7, 16]: 25/25
- Jumping mice/examined mice [7, 17]: 25/25

SMILES: CC(C)=CCN1CCC2(C)c3cc(O)ccc3CC1C2C (centres unmarked) [Pentazocine]
- ED50 (tail flick test) [1, 8]: 12 s.c. mg./kg.
- ED50 (hot plate) [10]: 9.1 mg./kg.s.c.
- LD50 (in vivo): 280 mg/kg
- ED50 [6]: 8.1 mg/kg

SMILES: COc1ccc2c3c1O[C@H]1[C@H](N=[N+]=[N-])CC[C@H]4[C@@H](C2)N(C)CC[C@@]341 [Azidocodeine]
- Ratio codeine/drug (AtD50) ([2]; rats, s.c.): 12.10
- AtD50 ([2]; rats, s.c., limits in brackets): 1.57 (1.20-2.41) mg/kg s.c.
- AtD50 ([3]; cats, i.v.): 0.40 mg/kg i.v.
- Ratio codeine/drug (AtD50) ([3]; cats, i.v.): 3.63
- Ratio codeine/drug (AtD100) ([3]; cats, i.v.): 4.69
- AtD100 [3, 13]: 1.08 ± 0.04 mg/kg i.v.
- Change in blood pressure [4, 18]: 6 ± 3.8 mm Hg
- Blood pressure after drug [4, 19]: 122 ± 5.2 mm Hg
- blood pressure effect in words ([4]; anesthetized cats, i.v.): The substances studied, except azidocodeine and 14-hydroxy-azidocodeine, lowered blood pressure

SMILES: COc1ccc2c3c1O[C@H]1[C@@H](O)C=C[C@H]4[C@@H](C2)N(C)CC[C@@]341 [Codeine]
- ED50 [2, 9]: 19 mg/kg
- ED50 ([2]; rats, oral, limits in brackets): 100 mg/kg
- ED100 [3, 20]: 5.07 ± 1.87 mg/kg
- ED50 ([3]; iv, cats, i.v.): 1.45 mg/kg
- Change in blood pressure ([4]; anesthetized cats, 1.5 mg/kg i.v.): 26 ± 4.9 mm Hg
- Blood pressure after drug ([4]; anesthetized cats, 1.5 mg/kg i.v., means ± S.E.): 98 ± 5.3 mm Hg
- tolerance to the vasodepressor responses ([4]; anesthetized cats, successive administrations): cross tolerance between morphine, codeine, azidomorphine and 14-hydroxyazidomorphine* was observed

SMILES: CCC(=O)C(CC(C)N(C)C)(c1ccccc1)c1ccccc1 (centres unmarked) [Methadone]
- ED50 (tail flick test) ([1]; rat, in vivo, sc): 1.6 s.c. mg./kg.
- ED50 (hot plate) (rat, in vivo, sc): 1.9 mg./kg.s.c.
- LD50 (in vivo): 28 mg/kg
- ED50 [6]: 0.71 mg/kg

SMILES: COc1ccc2c3c1O[C@H]1C(N=[N+]=[N-])CC[C@@]4(O)[C@@H](C2)N(C)CC[C@]314 (some centres unmarked) [14-OH-azidocodeine]
- ED50 [2, 9]: 0.82 mg/kg
- Ratio codeine/drug (AtD50) ([2]; rats, s.c.): 23.17
- ED100 [3, 20]: 1.47 ± 0.07 mg/kg
- ED50 ([3]; iv, cats, i.v.): 0.6 mg/kg
- Ratio codeine/drug (AtD50) ([3]; cats, i.v.): 2.42
- Ratio codeine/drug (AtD100) ([3]; cats, i.v.): 2.91
- Change in blood pressure [4, 18]: 3 ± 1.3 mm Hg
- Blood pressure after drug [4, 19]: 126 ± 6.6 mm Hg
- blood pressure effect in words ([4]; anesthetized cats, i.v.): The substances studied, except azidocodeine and 14-hydroxy-azidocodeine, lowered blood pressure

SMILES: CCOC(=O)C1(c2ccccc2)CCN(C)CC1 [Petidine]
- ED50 (tail flick test) [1, 8]: 4.3 s.c. mg./kg.
- ED50 (hot plate) [10]: 4.9 mg./kg.s.c.
- LD50 (in vivo): 280 mg/kg
- ED50 [6]: 3.3 mg/kg

SMILES: CN1CC[C@]23c4c5ccc(O)c4O[C@H]2[C@H](N=[N+]=[N-])CC[C@H]3[C@H]1C5 [Azidomorphine, 6-deoxy-6-azido-7,8-dihydroisomorphine]
- ED50 (tail flick test) [1, 8]: 0.012 s.c. mg./kg.
- ED50 [2, 9]: 0.034 mg/kg
- Ratio codeine/drug (AtD50) ([2]; rats, s.c.): 558.82
- Change in blood pressure ([4]; anesthetized cats, 0.0035 mg/kg i.v.): 40 ± 3.4 mm Hg
- Blood pressure after drug ([4]; anesthetized cats, 0.0035 mg/kg i.v., means ± S.E.): 103 ± 9.3 mm Hg
- tolerance to the vasodepressor responses ([4]; in vivo): cross tolerance between morphine, codeine, azidomorphine and 14-hydroxyazidomorphine* was observed
- ED50 [5]: 0.025 mg/kg
- ED50 (hot plate) [10]: 0.016 mg./kg.s.c.
- LD50 (in vivo): 13 mg/kg
- ED50 [6]: 0.013 mg/kg
- Average jump per mouse [7, 21]: 0.0
- Average jump per mouse [7, 11]: 1.4
- Average jump per mouse [7, 22]: 10.1
- Average jump per mouse [7, 12]: 7.4
- Jumping mice/examined mice [7, 21]: 0/25
- Jumping mice/examined mice [7, 11]: 10/25
- Jumping mice/examined mice [7, 22]: 19/25
- Jumping mice/examined mice [7, 12]: 12/25
